Data taken from ChEMBL document CHEMBL4699562, “Design, syntheses and evaluations of novel indole derivatives as orally selective estrogen receptor degraders (SERD)” (Bioorg Med Chem Lett, 2020).
Activity calls are given as the source filed them. No cut-off for these calls is given here.

Assays:
MCF7 [1] = assay: Antiproliferative activity against human MCF7 cells assessed as cell growth inhibition; format: functional, cell-based
Estrogen receptor [2] = molecular target: T1, Estrogen receptor (Homo sapiens, UniProt P03372); assay: Induction of estrogen receptor degradation in human MCF7 cells; format: cell-based
T1 sequence (P03372 whole entry): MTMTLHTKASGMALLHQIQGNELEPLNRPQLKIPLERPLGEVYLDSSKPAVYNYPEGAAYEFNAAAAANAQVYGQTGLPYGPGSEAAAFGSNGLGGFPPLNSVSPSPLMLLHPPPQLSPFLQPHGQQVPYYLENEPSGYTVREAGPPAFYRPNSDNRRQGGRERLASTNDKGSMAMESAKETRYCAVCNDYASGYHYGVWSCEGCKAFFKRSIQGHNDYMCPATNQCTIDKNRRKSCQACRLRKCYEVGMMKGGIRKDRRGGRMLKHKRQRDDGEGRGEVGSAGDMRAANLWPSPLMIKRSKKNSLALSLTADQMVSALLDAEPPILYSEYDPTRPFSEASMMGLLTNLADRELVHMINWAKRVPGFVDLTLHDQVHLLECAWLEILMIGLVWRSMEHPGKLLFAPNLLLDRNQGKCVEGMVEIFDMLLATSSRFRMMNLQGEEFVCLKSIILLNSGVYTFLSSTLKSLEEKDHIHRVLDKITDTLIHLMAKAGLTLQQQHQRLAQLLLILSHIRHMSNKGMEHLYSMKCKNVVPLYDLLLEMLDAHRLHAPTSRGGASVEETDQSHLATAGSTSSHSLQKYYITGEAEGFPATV

Estrogen receptor [3] = molecular target: T1, Estrogen receptor; assay: Binding affinity to estrogen receptor (unknown origin)
[4] = Clearance in CD-1 mouse; format: ADME; conditions: in vivo
MCF7 [5] = assay: Antitumor activity against human MCF7 cells expressing ER xenografted in BALB/c mouse assessed as tumor growth suppression at 20 mg/kg, po qd administered for 21 days; format: functional, organism-based; conditions: time 21.0 day
MCF7 [6] = assay: Antitumor activity against human MCF7 cells expressing ER xenografted in BALB/c mouse assessed as tumor growth inhibition at 20 mg/kg, po qd administered for 21 days and measured on day 19 relative to control; format: functional; conditions: 456 h, time 19 day, read-out: TGI
[7] = Volume of distribution in CD-1 mouse; format: ADME; conditions: in vivo
[8] = molecular target: Voltage-gated inwardly rectifying potassium channel KCNH2 (Homo sapiens, UniProt Q12809); assay: Inhibition of human ERG by automatic Q-patch assay
[9] = AUC (0 to last) in CD-1 mouse at 2.5 mg/kg, po; format: ADME, organism-based; set-up: time 0 - last, route oral, dose 2.5 mg/kg; conditions: in vivo
[10] = Oral bioavailability in CD-1 mouse; format: ADME, organism-based; conditions: in vivo

Sequence of Voltage-gated inwardly rectifying potassium channel KCNH2 (Q12809 whole entry): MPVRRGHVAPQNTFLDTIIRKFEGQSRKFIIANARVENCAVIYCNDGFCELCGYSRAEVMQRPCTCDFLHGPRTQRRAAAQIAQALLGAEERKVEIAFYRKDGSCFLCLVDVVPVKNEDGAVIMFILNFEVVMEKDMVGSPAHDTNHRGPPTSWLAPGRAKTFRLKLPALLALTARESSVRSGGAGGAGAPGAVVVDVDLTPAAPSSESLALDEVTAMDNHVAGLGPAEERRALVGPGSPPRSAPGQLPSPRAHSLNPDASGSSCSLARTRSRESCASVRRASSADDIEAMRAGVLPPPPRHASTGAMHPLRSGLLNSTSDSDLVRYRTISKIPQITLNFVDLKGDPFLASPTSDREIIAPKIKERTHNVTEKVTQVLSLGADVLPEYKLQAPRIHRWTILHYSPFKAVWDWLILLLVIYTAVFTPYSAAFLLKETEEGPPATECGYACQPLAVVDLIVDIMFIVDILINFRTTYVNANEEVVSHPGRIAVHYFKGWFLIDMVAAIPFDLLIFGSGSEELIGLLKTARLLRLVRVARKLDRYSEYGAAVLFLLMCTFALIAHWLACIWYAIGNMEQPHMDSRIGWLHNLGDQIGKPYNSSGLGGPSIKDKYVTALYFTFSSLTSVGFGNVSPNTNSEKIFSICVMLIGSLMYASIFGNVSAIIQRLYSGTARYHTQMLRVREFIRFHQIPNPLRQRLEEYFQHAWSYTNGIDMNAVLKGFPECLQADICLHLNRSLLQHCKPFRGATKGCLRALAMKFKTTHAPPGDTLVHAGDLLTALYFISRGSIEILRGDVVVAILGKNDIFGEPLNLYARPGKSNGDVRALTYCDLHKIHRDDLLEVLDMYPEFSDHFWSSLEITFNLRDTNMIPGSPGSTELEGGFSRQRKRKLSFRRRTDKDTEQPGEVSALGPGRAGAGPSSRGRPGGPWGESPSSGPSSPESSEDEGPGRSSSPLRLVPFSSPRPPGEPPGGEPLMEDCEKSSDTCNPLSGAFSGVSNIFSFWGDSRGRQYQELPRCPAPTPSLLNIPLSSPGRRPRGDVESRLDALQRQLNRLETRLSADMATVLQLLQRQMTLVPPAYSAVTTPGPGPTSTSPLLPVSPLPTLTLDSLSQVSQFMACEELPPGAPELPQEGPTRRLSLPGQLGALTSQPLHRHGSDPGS

IC50 (MCF7 [1]) [nM]	IC50 (Estrogen receptor [2]) [nM]	IC50 (Estrogen receptor [3]) [nM]	SMILES	also measured
39	21	1.6	CC/C(=C(/c1ccc(/C=C/C(=O)O)cc1)c1cc2ccccc2[nH]1)c1ccc(F)cc1Cl	
206	93	2.41	CC/C(=C(/c1ccc(/C=C/C(=O)O)cc1)c1cc2ccccc2[nH]1)c1ccccc1OC(F)(F)F	
30	42		CC/C(=C(/c1ccc(/C=C/C(=O)O)cc1)c1cc2ccccc2[nH]1)c1c(C)cccc1Cl	
282	68	4.71	CC/C(=C(/c1ccc(/C=C/C(=O)O)cc1)c1cc2ccccc2[nH]1)c1cccc(OC(F)(F)F)c1	
14	18	0.16	CC/C(=C(/c1ccc(/C=C/C(=O)O)cc1)c1cc2ccccc2[nH]1)c1ccc(Cl)cc1C#N	
140	69	1.46	CC/C(=C(/c1ccc(/C=C/C(=O)O)cc1)c1cc2ccccc2[nH]1)c1cccc(C)c1	
11	9	1.52	CC/C(=C(/c1ccc(/C=C/C(=O)O)cc1)c1cc2ccccc2[nH]1)c1ccc(Cl)cc1Cl	
8	4	0.87	CC/C(=C(/c1ccc(/C=C/C(=O)O)cc1)c1cc2ccccc2[nH]1)c1ccccc1C(F)(F)F	clearance [4]: 5.54 mL/min/kg; inhibition (MCF7 [5]): Active; inhibition in vivo at 20 mg/kg (MCF7 [6]): 112%; Vd [7]: 1.12 L/kg; inhibition (INH) ([8]; human): Active; AUC(0-t) [9]: 4.21 µM·h; bioavailability [10]: 25.7%
278	723		CC/C(=C(/c1ccc(/C=C/C(=O)O)cc1)c1cc2ccccc2[nH]1)c1ccc(C#N)cc1	
61	30	0.22	CC/C(=C(/c1ccc(/C=C/C(=O)O)cc1)c1cc2ccccc2[nH]1)c1ccc(OC)cc1	
139	163		CC/C(=C(/c1ccc(/C=C/C(=O)O)cc1)c1cc2ccccc2[nH]1)c1ccc(C(F)(F)F)cc1	
9	9	0.24	CC/C(=C(/c1ccc(/C=C/C(=O)O)cc1)c1cc2ccccc2[nH]1)c1ccccc1C#N	
325	131	1.75	CC/C(=C(/c1ccc(/C=C/C(=O)O)cc1)c1cc2ccccc2[nH]1)c1cccc(C(F)(F)F)c1	
0.49			C[C@@H]1Cc2c([nH]c3ccccc23)[C@@H](c2c(F)cc(/C=C/C(=O)O)cc2F)N1CC(C)(C)F [AZD-9496]	
42	29	0.44	CC/C(=C(/c1ccc(/C=C/C(=O)O)cc1)c1cc2ccccc2[nH]1)c1ccccc1Cl	
33	9	0.17	CC/C(=C(/c1ccc(/C=C/C(=O)O)cc1)c1cc2ccccc2[nH]1)c1ccccc1C	
71	25	1.4	CC/C(=C(/c1ccc(/C=C/C(=O)O)cc1)c1cc2ccccc2[nH]1)c1cc(Cl)ccc1Cl	
840	1390		CC/C(=C(/c1ccc(/C=C/C(=O)O)cc1)c1cc2ccccc2[nH]1)c1ccc(Cl)c(C)c1	
49	31	0.17	CC/C(=C(/c1ccc(/C=C/C(=O)O)cc1)c1cc2ccccc2[nH]1)c1ccc(C#N)cc1Cl	
2200	2450		CC/C(=C(/c1ccc(/C=C/C(=O)O)cc1)c1cc2ccccc2[nH]1)c1ccc(Cl)c(C(F)(F)F)c1	
108	66.6	0.28	CC/C(=C(/c1ccc(/C=C/C(=O)O)cc1)c1cc2ccccc2[nH]1)c1ccccc1	
343	271	1.74	CC/C(=C(/c1ccc(/C=C/C(=O)O)cc1)c1cc2ccccc2[nH]1)c1ccc(Cl)cc1	
898	495	3.18	CC/C(=C(/c1ccc(/C=C/C(=O)O)cc1)c1cc2ccccc2[nH]1)c1cccc(Cl)c1Cl	
40	49	0.17	CC/C(=C(/c1ccc(/C=C/C(=O)O)cc1)c1cc2ccccc2[nH]1)c1cccc(F)c1C#N	
27	6	0.98	CC/C(=C(/c1ccc(/C=C/C(=O)O)cc1)c1cc2ccccc2[nH]1)c1ccc(C(F)(F)F)cc1Cl	
4	2	0.76	CC/C(=C(/c1ccc(/C=C/C(=O)O)cc1)c1cc2ccccc2[nH]1)c1ccc(Cl)cc1C(F)(F)F	clearance [4]: 6.86 mL/min/kg; inhibition (MCF7 [5]): Active; inhibition in vivo at 20 mg/kg (MCF7 [6]): 117%; Vd [7]: 1.6 L/kg; IC50 [8]: > 30000 nM; AUC(0-t) [9]: 6.36 µM·h; bioavailability [10]: 52.4%
